Experimental data taken from patent US11691992B2 (Anacor Pharmaceuticals, Inc., priority 2017, dated 2023).
pIC50: −log10 of the molar value.

Tests used:
Format in all cases: cell-based
[1] = test system: bloodstream-form trypanosome T. brucei brucei 427 strain; assay: Trypanosoma brucei brucei high-throughput screening assay (resazurin); settings: 72 h, read-out: IC50: I Org. Growth T. brucei brucei SBRI 427, 3 d [uM]
Method: Example 105. Trypanosoma brucei brucei High-Throughput Screening Assay Procedure
All experiments were conducted with the bloodstream-form trypanosome T. brucei brucei 427 strain obtained from Seattle Biomedical Research Institute (Seattle, Wash.). Parasites were cultured in T-25 vented cap flasks and kept in humidified incubators at 37° C. and 5% CO2. The parasite culture media was complete HMI-9 medium containing 10% FBS, 10% Serum Plus medium and penicillin/streptomycin. To ensure log growth phase, trypanosomes were sub-cultured at appropriate dilutions every 2-3 days. Approximately 50 microliters of log phase cultures were diluted 1:10 in HMI-9 and 10 μL of the diluted culture was removed and counted using a hemocytometer to determine parasite concentration. Parasites were diluted by addition of an appropriate volume of HMI-9 to achieve a final parasite concentration of 2×10^5/mL. Compounds of the invention to be tested were serially diluted in DMSO and 0.5 μL added to 49.5 μL HMI-9 in triplicate 96-well plates using a Biomek NX liquid handler. Parasites from the diluted stock were added to each well (50 μL) using a Multidrop 384 dispenser to give a final concentration of 1.0×10^5/ml parasites in […] for DMSO. Trypanosomes were incubated with compounds for 72 hrs at 37° C. with 5% CO2. Resazurin (20 μL of 12.5 mg/ml stock) from Sigma-Aldrich was added to each well and plates were incubated for an additional 2-4 hrs. Assay plates were read using an EnVision plate reader at an excitation wavelength of 544 nm and emission of 590 nm. Triplicate data points were averaged to generate sigmoidal dose response curve and determine IC50 values using XLfit curve fitting software from IDBS (Guildford, UK).

[2] = test system: T. cruzi Tulahuen strain C2C4 containing the β-galactosidase (Lac Z) gene in rat skeletal myoblasts (L-6 cells); assay: Trypanosoma cruzi C2C4 screening assay; settings: L6, 96 h, read-out: SCYNEXIS IC50: I Org. Growth T. cruzi Tulahuen C2C4 Lac Z, 4 d [uM]
Method: Example 113: Trypanosoma cruzi C2C4 Screening Assay Procedure
Rat skeletal myoblasts (L-6 cells) were seeded in 96-well microtiter plates at 2×10^3 cells/well in 100 μL RPMI 1640 medium with 10% FBS and 2 mM L-glutamine. After 24 h the medium was removed and replaced by 100 μL per well containing 5×10^3 trypomastigote forms of T. cruzi Tulahuen strain C2C4 containing the β-galactosidase (Lac Z) gene (Buckner, et al., Antimicrobial Agents and Chemotherapy, 40: 2592-2597 (1996)). After 48 h the medium was removed from the wells and replaced by 100 μL fresh medium with or without a serial drug dilution of the seven 3-fold dilution steps covering a range from 90 to 0.123 μg/mL. After 96 h of incubation the plates were inspected under an inverted microscope to assure growth of the controls and sterility. The substrate (50 μL) chlorophenol red-β-D-galactopyranoside (CPRG, Roche Diagnostics, Ltd) in 0.25% Nonidet P-40/PBS was added to all wells and a color reaction developed within 2-6 h which was read photometrically at 540 nm. Data were transferred into the graphic program Softmax Pro (Molecular Devices), which calculated IC50 values.

[3] = test system: TdTomato-modified T. cruzi (CL strain) in Vero cells; assay: In vitro IC50 measurement of T. cruzi amastigote killing using TdTomato-modified T. cruzi (CL strain); settings: Trypanosoma cruzi, 72 h, fluorescence, read-out: IC50: I Org. amastigote Growth T. cruzi CL TdTomato, 3 d
Outline: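 Vero cells were infected with tdTomato-expressing CL-strain parasites and dosed at 5 uM–5 nM. Fluorescence (ex 544/em 612 nm) was read at day 0 and again after 72 h at 37 °C, with day 0 values subtracted. IC50 and IC90 came from nonlinear regression.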

[4] = test system: luciferase-expressing L. major parasites developing intracellularly inside RAW 264.7 macrophages; assay: Leishmania major intracellular amastigote assay in RAW 264.7 macrophages (luciferase); settings: RAW264.7, 96 hours, read-out: IC50: I Org. intracellular amastigote Growth L. major, 4 d
Outline: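 RAW 264.7 macrophages infected overnight with luciferase-expressing L. major promastigotes, washed of extracellular parasites, then exposed to two-fold compound dilutions (final 0.5-10,000 ng/ml) for 96 h at 37° C, 5% CO2. Luciferin luminescence after 30 min; IC50 by sigmoidal variable-slope regression.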

Row | Structure (SMILES) | IC50 [1] | IC50 [2] | pIC50 [3] | pIC50 [4]
1 | O=C(Nc1ccc2c(c1)B(O)OC2)c1cn(-c2ccccc2)nn1 [Example 66, N-(1-hydroxy-1,3-dihydrobenzo[c][1,2]oxaborol-6-yl)-1-phenyl-1H-1,2,3-triazole-4-carboxamide] | 0.075 to 0.15 µM | 0.06 to 0.1 µM | > 6.22 | ≥ 6.00
2 | Cc1c(C(=O)Nc2ccc3c(c2)B(O)OC3)nnn1-c1ccc(F)cc1 [Example 86, 1-(4-fluorophenyl)-N-(1-hydroxy-1,3-dihydrobenzo[c][1,2]oxaborol-6-yl)-5-methyl-1H-1,2,3-triazole-4-carboxamide] | 0.075 to 0.15 µM | 0.11 to 1 µM | 6.00 to 6.22 | –
